Experimental findings from ChEMBL document CHEMBL1159344, “Natural anti-HIV agents. Part IV. Anti-HIV constituents from Vatica cinerea” (J Nat Prod, 2003) are described below.

pIC50: −log10 of the molar value.

Data set [1] is described as follows: Selectivity index, ratio of CC50 for HOG.R5 cells to IC50 for HIV1 3B. The class given is functional.
Data set [2] deals with Human immunodeficiency virus 1. Kind of data set: Antiviral activity against HIV1 3B infected in human HOG.R5 assessed as inhibition of viral replication by microtiter assay. The class given is functional, organism-based. The following applies: Human immunodeficiency virus 1, 3B.
The nature of data set [3]: Cytotoxicity against human HOG.R5 cells. The class given is cell-based.
Data set [4] can be described thus: Cytotoxicity against human HOG.R5 cells at 20 ug/ml. The class given is cell-based.
Data set [5] concerns Human immunodeficiency virus 1. Briefly: Antiviral activity against HIV1 3B infected in human HOG.R5 assessed as inhibition of viral replication at 2.5 ug/ml by microtiter assay. The class given is functional. The note with it: Human immunodeficiency virus 1, 3B.
Data set [6] relates to Human immunodeficiency virus 1. Briefly: Antiviral activity against HIV1 3B infected in human HOG.R5 assessed as inhibition of viral replication at 20 ug/ml by microtiter assay. The class given is functional. The note with it: Human immunodeficiency virus 1, 3B.

Take `C=C(C/C=C/C(C)(C)O)[C@H]1CC[C@]2(C)[C@@H]1CC[C@@H]1[C@@]3(C)CC[C@H](O)C(C)(C)[C@@H]3CC[C@]12C`: the “Ratio CC50/IC50” value in data set [1] is on record as 1.3. The negative-log IC50 (pIC50) in data set [2] is 4.65. In data set [3], this compound displayed a CC50 of 30.3 µM.

For `C/C(=C\CC[C@@H](C)[C@H]1CC[C@@]2(C)C3=C(CC[C@]12C)[C@@]1(C)CCC(=O)C(C)(C)[C@@H]1CC3)C(=O)O`, the “Ratio CC50/IC50” value in data set [1] amounted to 1.7. Besides, in data set [2], the pIC50 is 5.07. Besides, half-maximal cytotoxicity in data set [3] (CC50) was put at 14.8 µM.

`C=C(CC[C@H](O)C(=C)C)[C@H]1CC[C@]2(C)[C@@H]1CC[C@@H]1[C@@]3(C)CC[C@H](O)C(C)(C)[C@@H]3CC[C@]12C`: in data set [1], the “Ratio CC50/IC50” value is given as 2.3. Further, in data set [2], the pIC50 was 5.21. In data set [3], this compound showed a CC50 of 14.3 µM.

In the case of `CC1=C2[C@@H]3[C@H](CC[C@H](C)[C@]2(O)CC1=O)C3(C)C`, the “Ratio CC50/IC50” value in data set [1] is on record as above 1. Also, in data set [2], the pIC50 was 4.06. Besides, the Activity entry in data set [4] was “Non-toxic”. Further, in data set [3], it took 85.5 µM to reach half-maximal cytotoxicity (CC50).

`CC(=O)/C=C/C[C@@H](C)[C@H]1CC[C@@]2(C)[C@@H]3CC[C@H]4C(C)(C)[C@@H](O)CC[C@@]45C[C@@]35CC[C@]12C`: in data set [2], the negative logarithm of the IC50 (pIC50) is 5.23. Moreover, the inhibition at 2.5 µg/mL in data set [5] was determined as 21%. In data set [3], this compound displayed a CC50 of 12.7 µM.

On to `C=C(C)[C@@H]1CC[C@]2(C(=O)O)CC[C@]3(C)[C@H](CC[C@@H]4[C@@]5(C)CC[C@H](O)C(C)(C)[C@@H]5CC[C@]43C)[C@@H]12` [BETULINIC ACID], for which the “Ratio CC50/IC50” value in data set [1] came to 1.1. For the same compound, the pIC50 in data set [2] is 4.49. In data set [3], this compound gave a CC50 of 36 µM.

Turning to `C=C(C)[C@@H]1CC[C@]2(CO)CC[C@]3(C)[C@H](CC[C@@H]4[C@@]5(C)CC[C@H](O)C(C)(C)[C@@H]5CC[C@]43C)[C@@H]12` [BETULIN], the “Ratio CC50/IC50” value in data set [1] was 1.4. Also, the pIC50 in data set [2] is 4.86. The CC50 in data set [3] was determined as 19.5 µM.

In the case of `C=C(C)[C@@H]1CC[C@]2(C(=O)O)CC[C@]3(C)[C@H](CC[C@@H]4[C@@]5(C)CCC(=O)C(C)(C)[C@@H]5CC[C@]43C)[C@@H]12` [BETUNOLIC ACID], in data set [2], the pIC50 is 4.67. In addition, in data set [3], the CC50 turned out to be 105 µM.

`CC(CCC[C@@H](C)[C@H]1CC[C@@]2(C)[C@@H]3CC[C@H]4C(C)(C)C(=O)CC[C@@]45C[C@@]35CC[C@]12C)C(=O)O` (stereo partly specified) [DIHYDROSCHIZANDRONIC ACID]: in data set [2], the pIC50 is 4.36. Moreover, the Activity entry in data set [4] is reported as “Non-toxic”. Further, the inhibition at 20 µg/mL in data set [6] came to 0%. This compound also yielded a CC50 in data set [3] of 43.9 µM.

Regarding `CC1(C)CC[C@]2(CO)CC[C@]3(C)C(=CC[C@@H]4[C@@]5(C)CC[C@H](O)C(C)(C)[C@@H]5CC[C@]43C)[C@@H]2C1` [ERYTHRODIOL], in data set [1], the “Ratio CC50/IC50” value was above 1. Moreover, the pIC50 in data set [2] was 4.34. For the same compound, the Activity result in data set [4] is listed as “Non-toxic”. The inhibition at 20 µg/mL in data set [6] turned out to be 33%. The compound further displayed a CC50 in data set [3] of 45.2 µM.

Consider `C/C(=C\CC[C@@H](C)[C@H]1CC[C@@]2(C)[C@@H]3CC[C@H]4C(C)(C)C(=O)CC[C@@]45C[C@@]35CC[C@]12C)C(=O)O` [MANGIFERONIC ACID], for which the pIC50 in data set [2] is 4.36. In addition, the Activity result in data set [4] was “Non-toxic”. The inhibition at 20 µg/mL in data set [6] stood at 19%. The compound also returned a CC50 in data set [3] of 44.1 µM.

As to `C=Cc1c(C)c2cc3nc(c4c5[nH]c(cc6nc(cc1[nH]2)C(C)=C6CC)c(C)c5C(=O)[C@@H]4C(=O)OC)[C@@H](CCC(=O)O)[C@@H]3C` [PHEOPHORBIDE A], the “Ratio CC50/IC50” value in data set [1] is above 13. Moreover, in data set [2], the pIC50 is 5.60. In data set [3], the CC50 is 33.8 µM.

Turning to `C[C@H]1[C@H](C)CC[C@]2(C(=O)O)CC[C@]3(C)C(=CC[C@@H]4[C@@]5(C)CC[C@H](O)C(C)(C)[C@@H]5CC[C@]43C)[C@H]12` [URSOLIC ACID], the “Ratio CC50/IC50” value in data set [1] was 4.9. In addition, the pIC50 in data set [2] is 4.83. Besides, in data set [3], the CC50 is 15.8 µM.

Take `CC(=O)/C=C/C[C@@H](C)[C@H]1CC[C@@]2(C)[C@@H]3CC[C@H]4C(C)(C)C(=O)CC[C@@]45C[C@@]35CC[C@]12C` [VATICINONE]: the “Ratio CC50/IC50” value in data set [1] was determined as 1.4. In addition, the pIC50 in data set [2] was 4.82. The compound further yielded a CC50 in data set [3] of 21.5 µM.
